Experimental data: patent US5512569A, “Aminoalkyl benzothiazolinones” (Adir et Compagnie, priority 1994, dated 1996)

Tested on: catalepsigenic effect
Assay: Investigation into the catalepsigenic effect in rats
Format: in vivo, Wistar rats
Conditions: 2 mg.kg^-1, same study conditions (IP, rats, 30-minute interval)
Experimental: The catalepsigenic effect is investigated in rats via the intraperitoneal route. This test predicts the existence of side effects of extrapyramidal type. 6 groups of Wistar rats received an injection of the compounds of the invention and were then tested for their catalepsigenic activity after a 30-minute interval. Haloperidol is used as reference.

## O=C(CCCN1CCC(O)(c2ccc(Cl)cc2)CC1)c1ccc(F)cc1 [haloperidol]
  catalepsigenic effect: 95%
